Laboratory results reported in ChEMBL document CHEMBL3864146, “5-Alkyloxytryptamines are membrane-targeting, broad-spectrum antibiotics” (Bioorg Med Chem Lett, 2016).

Assays:
Escherichia coli [1] = assay: Antibacterial activity against Escherichia coli BW25113 after 16 to 18 hrs by micro-dilution method; format: functional
Escherichia coli [2] = assay: Antibacterial activity against tolC-deficient Escherichia coli BW25113 after 16 to 18 hrs by micro-dilution method; format: functional
Bacillus subtilis = assay: Antibacterial activity against Bacillus subtilis 168 after 16 to 18 hrs by micro-dilution method; format: functional; details: subsp. subtilis str. 168
Pseudomonas aeruginosa [3] = assay: Antibacterial activity against Pseudomonas aeruginosa after 16 to 18 hrs by micro-dilution method; format: functional
Salmonella typhimurium [4] = assay: Antibacterial activity against Salmonella typhimurium after 16 to 18 hrs by micro-dilution method; format: functional, Salmonella enterica subsp. enterica serovar Typhimurium; details: Salmonella enterica
Vibrio cholerae = assay: Antibacterial activity against Vibrio cholerae after 16 to 18 hrs by micro-dilution method; format: functional
Shigella boydii = assay: Antibacterial activity against Shigella boydii after 16 to 18 hrs by micro-dilution method; format: functional
Klebsiella pneumoniae [5] = assay: Antibacterial activity against Klebsiella pneumoniae after 16 to 18 hrs by micro-dilution method; format: functional
Klebsiella aerogenes = assay: Antibacterial activity against Enterobacter aerogenes after 16 to 18 hrs by micro-dilution method; format: functional
Acinetobacter baumannii [6] = assay: Antibacterial activity against Acinetobacter baumannii after 16 to 18 hrs by micro-dilution method; format: functional
Edwardsiella tarda = assay: Antibacterial activity against Edwardsiella tarda after 16 to 18 hrs by micro-dilution method; format: functional
Morganella morganii = assay: Antibacterial activity against Morganella morganii after 16 to 18 hrs by micro-dilution method; format: functional
Staphylococcus aureus [7] = assay: Antibacterial activity against Staphylococcus aureus after 16 to 18 hrs by micro-dilution method; format: functional
Escherichia coli [8] = assay: Induction of membrane permeabilization in Escherichia coli BW25113 at MIC after 15 mins by propidium iodide staining-based fluorescence microplate reader method relative to 50% ethanol; format: functional
Escherichia coli [9] = assay: Adjuvant activity assessed as potentiation of chloramphenicol-induced antibacterial activity against Escherichia coli BW25113 at 0.5 times MIC after 16 to 18 hrs by checkerboard assay (reference value: 8 ng/ml); format: functional
Escherichia coli [10] = assay: Adjuvant activity assessed as potentiation of chloramphenicol-induced antibacterial activity against Escherichia coli BW25113 at 0.25 times MIC after 16 to 18 hrs by checkerboard assay (reference value: 8 ng/ml); format: functional
Escherichia coli [11] = assay: Adjuvant activity assessed as potentiation of tetracycline-induced antibacterial activity against Escherichia coli BW25113 at 0.5 times MIC after 16 to 18 hrs by checkerboard assay (reference value: 2 ng/ml); format: functional
Escherichia coli [12] = assay: Adjuvant activity assessed as potentiation of tetracycline-induced antibacterial activity against Escherichia coli BW25113 at 0.25 times MIC after 16 to 18 hrs by checkerboard assay (reference value: 2 ng/ml); format: functional
Escherichia coli [13] = assay: Adjuvant activity assessed as potentiation of ciprofloxacin-induced antibacterial activity against Escherichia coli BW25113 at 0.5 times MIC after 16 to 18 hrs by checkerboard assay (reference value: 13 ng/ml); format: functional
Escherichia coli [14] = assay: Adjuvant activity assessed as potentiation of ciprofloxacin-induced antibacterial activity against Escherichia coli BW25113 at 0.25 times MIC after 16 to 18 hrs by checkerboard assay (reference value: 13 ng/ml); format: functional
Escherichia coli [15] = assay: Adjuvant activity assessed as potentiation of rifampicin-induced antibacterial activity against Escherichia coli BW25113 at 0.5 times MIC after 16 to 18 hrs by checkerboard assay (reference value: 8 ng/ml); format: functional
Escherichia coli [16] = assay: Adjuvant activity assessed as potentiation of rifampicin-induced antibacterial activity against Escherichia coli BW25113 at 0.25 times MIC after 16 to 18 hrs by checkerboard assay (reference value: 8 ng/ml); format: functional
Salmonella typhimurium [17] = assay: Adjuvant activity assessed as potentiation of rifampicin-induced antibacterial activity against Salmonella typhimurium at 21 ug/ml after 16 to 18 hrs by checkerboard assay (reference value: 8 ug/ml); format: functional, Salmonella enterica subsp. enterica serovar Typhimurium; details: Salmonella enterica
Acinetobacter baumannii [18] = assay: Adjuvant activity assessed as potentiation of rifampicin-induced antibacterial activity against Acinetobacter baumannii at 21 ug/ml after 16 to 18 hrs by checkerboard assay (reference value: 2 ug/ml); format: functional
Pseudomonas aeruginosa [19] = assay: Adjuvant activity assessed as potentiation of rifampicin-induced antibacterial activity against Pseudomonas aeruginosa at 21 ug/ml after 16 to 18 hrs by checkerboard assay (reference value: 16 ug/ml); format: functional
Klebsiella pneumoniae [20] = assay: Adjuvant activity assessed as potentiation of rifampicin-induced antibacterial activity against Klebsiella pneumoniae at 21 ug/ml after 16 to 18 hrs by checkerboard assay (reference value: 16 ug/ml); format: functional
Staphylococcus aureus [21] = assay: Adjuvant activity assessed as potentiation of rifampicin-induced antibacterial activity against Staphylococcus aureus at 21 ug/ml after 16 to 18 hrs by checkerboard assay (reference value: 0.004 ug/ml); format: functional
[22] = Cytotoxicity against HEK cells assessed as cell viability at 21 ug/ml after 24 hrs by CellTiter-Glo assay relative to control; format: toxicity, cell-based, HEK293; details: human, read-out: Activity
[23] = Cytotoxicity against HEK cells assessed as cell viability at 10.5 ug/ml after 24 hrs by CellTiter-Glo assay relative to control; format: toxicity, cell-based, HEK293; details: human, read-out: Activity
[24] = Cytotoxicity against HEK cells assessed as cell viability at 5.3 ug/ml after 24 hrs by CellTiter-Glo assay relative to control; format: toxicity, cell-based, HEK293; details: human, read-out: Activity
[25] = Cytotoxicity against HEK cells assessed as cell viability at 21 ug/ml after 48 hrs by CellTiter-Glo assay relative to control; format: toxicity, cell-based, HEK293; details: human, read-out: Activity
[26] = Cytotoxicity against HEK cells assessed as cell viability at 10.5 ug/ml after 48 hrs by CellTiter-Glo assay relative to control; format: toxicity, cell-based, HEK293; details: human, read-out: Activity
[27] = Cytotoxicity against HEK cells assessed as cell viability at 5.3 ug/ml after 48 hrs by CellTiter-Glo assay relative to control; format: toxicity, cell-based, HEK293; details: human, read-out: Activity

Which MIC (Escherichia coli [1]) does the source give for `CCCCCCOc1ccc2[nH]cc(CCN)c2c1.Cl` here?
The MIC was 42 µg/mL.

What about the MIC (Escherichia coli [2]) of the same molecule?
Its MIC is 42 µg/mL.

What about the MIC (Bacillus subtilis) of the same molecule?
The MIC was 42 µg/mL.

And the MIC (Pseudomonas aeruginosa [3])?
Its MIC is over 83 µg/mL.

And the MIC (Salmonella typhimurium [4])?
The MIC was 42 µg/mL.

And the MIC (Vibrio cholerae)?
The MIC was 42 µg/mL.

And the MIC (Shigella boydii)?
Its MIC is 42 µg/mL.

What about the MIC (Klebsiella pneumoniae [5]) of the same molecule?
Its MIC is 42 µg/mL.

And the MIC (Klebsiella aerogenes)?
Its MIC is 42 µg/mL.

What about the MIC (Acinetobacter baumannii [6]) of the same molecule?
Its MIC is 42 µg/mL.

And the MIC (Edwardsiella tarda)?
Its MIC is 42 µg/mL.

And the MIC (Morganella morganii)?
The MIC was over 83 µg/mL.

And the MIC (Staphylococcus aureus [7])?
Its MIC is 42 µg/mL.

What about the Activity (Escherichia coli [8]) of the same molecule?
The Activity was 34%.

What about the MIC (Escherichia coli [9]) of the same molecule?
Its MIC is 0.004 µg/mL.

And the MIC (Escherichia coli [10])?
The MIC was 0.004 µg/mL.

What about the MIC (Escherichia coli [11]) of the same molecule?
The MIC was 0.001 µg/mL.

And the MIC (Escherichia coli [12])?
Its MIC is 0.002 µg/mL.

And the MIC (Escherichia coli [13])?
Its MIC is 0.013 µg/mL.

What about the MIC (Escherichia coli [14]) of the same molecule?
Its MIC is 0.013 µg/mL.

What about the MIC (Escherichia coli [15]) of the same molecule?
The MIC was 0.001 µg/mL.

What about the MIC (Escherichia coli [16]) of the same molecule?
The MIC was 0.004 µg/mL.

What about the MIC (Salmonella typhimurium [17]) of the same molecule?
The MIC was 0.5 µg/mL.

And the MIC (Acinetobacter baumannii [18])?
The MIC was 0.016 µg/mL.

And the MIC (Pseudomonas aeruginosa [19])?
Its MIC is 16 µg/mL.

And the MIC (Klebsiella pneumoniae [20])?
Its MIC is 8 µg/mL.

And the MIC (Staphylococcus aureus [21])?
The MIC was 0.004 µg/mL.

And the viability at 24 h, 21 ug/ml [22]?
The viability at 24 h, 21 ug/ml was 0%.

And the viability at 24 h, 10.5 ug/ml [23]?
Its viability at 24 h, 10.5 ug/ml is 0.1%.

And the viability at 24 h, 5.3 ug/ml [24]?
Its viability at 24 h, 5.3 ug/ml is 0.4%.

What about the viability at 48 h, 21 ug/ml [25] of the same molecule?
The viability at 48 h, 21 ug/ml was 0%.

And the viability at 48 h, 10.5 ug/ml [26]?
The viability at 48 h, 10.5 ug/ml was 0%.

And the viability at 48 h, 5.3 ug/ml [27]?
Its viability at 48 h, 5.3 ug/ml is 0.1%.
